Measurements: US20220315897A1, “METHOD FOR IN VITRO PRODUCTION OF HYALINE CARTILAGE TISSUE” (VANARIX SA, priority 2019, published 2022)

Columns and labels:
Type in all cases: cell-based, human
[1] = system: chondrocytes; experiment: qPCR of ACAN and COL2A1 mRNA in chondrocytes and beads (2-step method) with WNT inhibitor; details: 10 μM in medium E; 2-step method after 2D and 3D culture
Description: (§1) XAV939 was obtained by Sigma and used at the concentration of 10 μM for 4 days in 2D culture in medium E.
Isolation of total RNA was performed by using the RNeasy kit from Qiagen according to the manufacturer's instructions and was measured using a spectrometer. 500 ng of total RNA was used to synthesize cDNA using the PrimeScript RT Reagent Kit (Takara) according to manufacturer's protocol.
Real-time PCR was performed with PowerUp SYBR Green Master Mix (Applied Biosystems) using the QuantStudio 12K Flex Real-Time PCR System (Thermo Fisher Scientific) at the Genomic platform core facilities (University of Geneva). First, efficacy tests were performed for all primers for validation prior utilization. The relative level of each sample was normalized, at least, to […] (ALAS1). RT-PCR reactions were carried out, at least, in technical and biological triplicates, and the average cycle threshold (CT) values were determined.
(§2) In order to validate the role of WNT pathway downregulation during the redifferentiation phase (medium R) (FIG. 1A), the inventors replaced medium R by medium E supplemented with 10 μM of XAV-939, a WNT pathway inhibitor for 4 days (FIG. 7G).

[2] = system: WNT signaling; experiment: Immunoblotting of chondrocytes treated with WNT signaling inhibitor; details: 10 μM, 4 days, 2D culture in medium E
Description: as §1
Cells were lysed 30 min on ice in ice-cold RIPA buffer (Life Technologies), supplemented with phosphatase and protease inhibitors (Complete anti-protease cocktail; Roche). Protein (10 μg) was separated by SDS-PAGE (BioRad) and transferred to PVDF membranes (Amersham) Blots were probed with anti-phospho-β-catenin (Cell Signaling; 5651T), TCF-4 (Cell Signaling; 2569), Axin1 (Cell Signaling; 2087), β-actin HRP (Sigma-Aldrich) and GADPH (Cell Signaling; 2118) (1:1000) followed by the HRP-Rabbit or Mouse conjugated antibodies (1:5000).
as §2

[3] = system: chondrocytes; experiment: Safranin-O staining of GAG in beads from chondrocytes cultured in medium E + WNT inhibitor (2-step method); details: medium E + 10 μM inhibitor
Description: as §1
Safranin-O staining of cartilage spheres and native cartilage formalin-fixed paraffin-embedded samples was performed, in order to reveal glycosaminoglycans (GAG) on 5 μm paraffin slices. Slides were deparaffinated by Xylol and rehydrated by consecutive alcohol bath (concentration 100%, 95% and 70%) with a final 5-minutes distilled water bath. Then, hematoxylin staining was used for nucleus counterstaining, followed by a 5-minutes wash with running hot water. Fast Green (Sigma F7252) was used to stain the cytoplasm, then washed out with acetic acid. The slides were washed out immediately with distilled water. Safranin-O 0.1% in water bath (Sigma S2255) was applied for staining of GAGs for two and a half minutes, then washed repeatedly with distilled water. Dehydration was achieved by vigorously shaking the rack 10-20 times in alcohol baths (concentration 95% and 100%), followed by a Xylol bath until slides assembly with Eukitt resin (Batch A1113, KiNDO1500).
as §2

Oc1nc(-c2ccc(C(F)(F)F)cc2)nc2c1CSCC2 [XAV-939]
ACAN expression [1]: increase | COL2A1 expression [1]: increase | axin (immunoblot) [2]: increase | phospho-β-catenin (immunoblot) [2]: increase | GAG Safranin-O staining of beads [3]: presence of hyaline features
